# B1: HaPP5 (Helicoverpa armigera) (protein)
# chain: MATNEEITGPISQEDIEAADKLKNEANEYFKKQSYNNAIELYSKAIEKNPKNAVYFANRSIANLRLENFGYALSDASKAIELDRAYTKAYYRRAAAYMSLGKYKLALKDFEFVTKVRPNDQDAKMKYTECNKIVKKIAFEKAISVDKKEVNIADSINLDAMTIEDEYVGPALEDGKVTLKFVTELMEFYKQQKKLHKKYAYKILIDVKAYLQKQPSLVDIKVADEAKFTVCGDIHGQYYDLMNIFKLNGLPSETNPYLFNGDFVDRGSFSVECIFTLFSFKLLFPDHFYMSRGNHETLDMNRMYGFRGEVSSKYTSQMADLFTEVYNWLPLAHCINSRVMVMHGGLFSKDDVTLDDIRKVDRNKQPPEDGIMCELLWSDPQPMMGRAPSKRGVGCQFGPDVTNTFLQRNGLDYVIRSHEVKNDGYEVAHDGKCITVFSAPNYCDTMGNLGAFITMNGKDLKPNFTTYEAVPHPDVKPMAYANSFFNMLCQ
# B2: MsPP5 (Mythimna separata) (protein)
# chain: MASNEEITGPISQEDMEAADKLKNEANEYFKKQSYNNAIELYSKAIEKNPKNAVFFANRSIANLRLENFGYALSDASKAIELDRSYTKAYYRRAAAYMSLGKYKLALKDFEYVTKVRPNDQDAKMKYTECNKIVKKIAFEKAISVDKKEVNIADSINLEAMTIEDEYVGPALEDGVVTLKFVTELMEFYKQQKKLHKKYAYKILIDVKAYLQKQPSLIDIKVADDAKFTVCGDIHGQYYDLMNIFKLNGLPSETNPYLFNGDFVDRGSFSVECIFTLFSFKLLFPNHFYMSRGNHETLDMNRMYGFRGEVSSKYTSQMADLFTEVYNWLPLAHCINGRVLVMHGGLFSKDDVTLDDIRKVDRNKQPPEDGIMCELLWSDPQPMAGRAPSKRGVGCQFGPDVTSTFLQRNGLDYVIRSHEVKNDGYEIAHDGKCITVFSAPNYCDTMGNLGAFITMNGKDLKPNFTTYEAVAHPDVKPMAYANSFFNMLCQ
# B3: PxPP5 (Plutella xylostella) (protein)
# chain: MASNDEITGGPITQEDIEAAEKLKNEANEYFKKQNYNAAIELYSKAIEKNGKNAVFYANRSIANIRLENFGYALTDASKAIEIDRSYTKAYYRRAAAYMSLGKYKLALKDFEVVTKVRPKDQDAKMKYNECNKIVKKIAFEKAISVDKKEVNIADSINLDAMTIEDEYEGPALEDGKVTLKFVTDLMEYYKQQQKLHKKYAYKILIDVKAYLQKQPSLINIKVPDEAKFTVCGDIHGQYYDLMNVFKLNGLPSETNPYLFNGDFVDRGPFSVECIFVLFSFKLLYPDHMYMSRGNHETLDMNRMYGFRGEVSSKYTSQMADLFTEVYNWLPLAHCINNRVMVMHGGLFSKDDITLDDIRRVDRNKQPPEDGIMCELLWSDPQPMAGRAPSKRGVGCQFGPDVTANFLARNRLDYIIRSHEVKNDGYELAHDGKCITVFSAPNYCDTMGNRGAFITMNGKDLKPIFTTYEAVPHPDVKPMAYANSFLSMLCQ
# Key:
# [1] = tested on: crude PPP extracts; experiment: Inhibition of phosphatase activity of crude PPP extracts, phosphopeptide RRA(pT)VA as substrate; type: biochemical, H. armigera, M. separata and P. xylostella; details: treated with 1.0 µM inhibitor, range over three insect extracts
# Description: (§1) One gram of 4th instar larvae of each insects were ground into a homogeneous state in ice-cold 20 mM Tris (pH = 7.5), 0.1% β-mercaptoethanol, 1 mM EDTA, 1 mM benzamidine and 1 mM (PMSF). This was then centrifuged at 12,000 g for 30 min at 4°C. The supernatant extract was desalted using Sephadex G-25 spin columns (GE Healthcare, Boston, MA, USA) to remove the contaminating free phosphate as described in the instruction manual. Each insect extract contained three biological replicates. Protein concentration was estimated using the method of Bradford.
# (§2) Phosphatases activity of crude extract was determined towards phosphopeptides using PPP assay kit (Promega, Madison, WI, USA) in half-area 96-well plates (Corning, NY, USA) following the manual instruction. In brief, 1.0 µg protein was mixed in assay buffer of 50 mM imidazole (pH 7.2), 0.2 mM EGTA, 0.02% β-mercaptoethanol, 0.1 mg ml^−1 BSA, and pre-warmed to 30°C. Reaction was initiated after adding 100 µM phosphopeptides, RRA(pT)VA to obtain a final volume of 50 µL and incubated at 30°C for 15 min. The reaction was stopped by adding 50 µL of molybdate dye/additive mixture and incubated for an additional 15 min at room temperature for color development. Control samples were determined without enzyme.
# (§3) Three candidate inhibitors were dissolved in dimethyl sulphoxide (DMSO) to provide stock solutions of 10 mM for okadaic acid, 100 mM for cantharidin, and 200 mM for endothall, respectively. All solutions were diluted to the desired concentrations with assay buffer before use. Assays were carried out using pNPP as substrate for purified proteins or using RRA(pT)VA as substrate for crude PPP extract. Before initiating the reaction, the enzyme was incubated with the chemicals for 5 min at room temperature. A dose-response assay was used to determine the IC50 values. The non-enzyme reaction was taken as the background control, while the non-inhibitor reaction was used as the full-activity control.
# [2] = target: T1, recombinant HaPP5 (Helicoverpa armigera, UniProt A0A059TAS5); experiment: Inhibition assay of recombinant HaPP5 phosphatase activity, pNPP as substrate; type: biochemical
# T1 sequence (A0A059TAS5 1-490): B1 chain
# Description: (§4) Non-enzyme samples were taken as controls.
# as §3
# [3] = target: T2, recombinant PxPP5 (Plutella xylostella, UniProt W0FSW2); experiment: Inhibition assay of recombinant PxPP5 phosphatase activity, pNPP as substrate; type: biochemical
# T2 sequence (W0FSW2 1-491): B3 chain
# Description: as §4, §3
# [4] = target: T3, recombinant MsPP5 (Mythimna separata, UniProt A0A059TAW5); experiment: Inhibition assay of recombinant MsPP5 phosphatase activity, pNPP as substrate; type: biochemical
# T3 sequence (A0A059TAW5 1-490): B2 chain
# Description: as §4, §3
# [5] = target: T1, recombinant HaPP5; experiment: Arachidonic acid stimulation assay and kinetics of recombinant HaPP5, pNPP as substrate; type: biochemical
# From the text: as §4
# [6] = tested on: E. coli expressed PP5 from P. falciparum; design: method as in PMID 11897131; details: cited from earlier work
# [7] = tested on: E. coli expressed PP5 from E. chinensis; design: method as in PMID 24351830; details: cited from earlier work
# [8] = target: T3, recombinant MsPP5; experiment: Arachidonic acid stimulation assay and kinetics of recombinant MsPP5, pNPP as substrate; type: biochemical
# From the text: as §4
# [9] = target: T2, recombinant PxPP5; experiment: Arachidonic acid stimulation assay and kinetics of recombinant PxPP5, pNPP as substrate; type: biochemical
# From the text: as §4
# [10] = tested on: E. coli expressed PP5 from T. brucei; design: method as in PMID 11290414; details: cited from earlier work
# [11] = tested on: total crude protein phosphatases; experiment: Arachidonic acid stimulation of crude PPP extracts, phosphopeptides as substrate; type: biochemical, H. armigera, M. separata and P. xylostella; details: larvae extracts of three insects
# Description: as §1, §2
# [12] = tested on: three lepidopteran PP5 proteins; experiment: Inhibition of the three recombinant lepidopteran PP5 proteins (stated jointly), pNPP as substrate; type: biochemical, H. armigera, M. separata and P. xylostella; details: range over HaPP5, MsPP5 and PxPP5
# Description: as §4, §3
# [13] = tested on: E. chinensis PP5; design: method as in PMID 24351830; details: cited from earlier work
# [14] = substrate: O=[N+]([O-])c1ccc(OP(=O)(O)O)cc1; experiment: purified protein, by the assay type; details: pH 7.5; 30.0 °C
# [15] = 0.25 h, up to, dose dependent, maximum activation at 150 µM
# [16] = addition of 150 µM arachidonic acid
# [17] = up to, dose dependent, maximum activation at 150 µM, 15 min, 150 µM
molecule,measurement,setting,value
O=C(O)[C@@H]1[C@H](C(=O)O)[C@H]2CC[C@@H]1O2 [endothall],Residual phosphatase activities of the three crude extracts,[1],83.77–87.66%
same,IC50,[2],19300 ± 2340 nM
same,IC50,[3],6840 ± 470 nM
same,IC50,[4],12600 ± 1620 nM
CCCCC/C=C\C/C=C\C/C=C\C/C=C\CCCC(=O)O [arachidonic acid],maximal fold induction at 150 µM,[5]; [15],~2
same,Elevation of Vmax value of HaPP5,[5]; [16],1.33 fold
same,Reduction of Km value of HaPP5,[5]; [16],2.07 fold
same,Stimulation of activity of recombinant HaPP5,[5]; [17],up to 1.78 fold
same,Maximum activation of E. coli expressed PP5 from P. falciparum,[6],2.0 fold
same,Maximum activation of E. coli expressed PP5 from E. chinensis,[7],2.3 fold
same,maximal fold induction at 150 µM,[8]; [15],~2
same,Elevation of Vmax value of MsPP5,[8]; [16],1.54 fold
same,Reduction of Km value of MsPP5,[8]; [16],1.86 fold
same,Stimulation of activity of recombinant MsPP5,[8]; [17],≤ 1.99 fold
same,maximal fold induction at 150 µM,[9]; [15],~2
same,Elevation of Vmax value of PxPP5,[9]; [16],1.26 fold
same,Reduction of Km value of PxPP5,[9]; [16],2.16 fold
same,Stimulation of activity of recombinant PxPP5,[9]; [17],≤ 1.81 fold
same,Maximum activation of E. coli expressed PP5 from T. brucei,[10],2.6 fold
same,Stimulation of phosphatase activity of total crude extracts,[11],no significant stimulation
C[C@@]12C(=O)OC(=O)[C@]1(C)[C@H]1CC[C@@H]2O1 [cantharidin],Residual phosphatase activities of the three crude extracts,[1],57.65–61.23%
same,IC50,[2],1280 ± 310 nM
same,IC50,[3],730 ± 270 nM
same,IC50,[4],2380 ± 480 nM
same,IC50,[12],730 to 2380 nM
C=C1[C@@H](O)[C@@H]2O[C@]3(CC[C@H](/C=C/[C@@H](C)[C@@H]4CC(C)=C[C@@]5(O[C@H](C[C@@](C)(O)C(=O)O)CC[C@H]5O)O4)O3)CC[C@H]2O[C@@H]1[C@@H](O)C[C@H](C)[C@H]1O[C@@]2(CCCCO2)CC[C@H]1C [okadaic acid],Residual phosphatase activities of the three crude extracts,[1],16.37–18.89%
same,IC50,[2],41.8 ± 3.31 nM
same,IC50,[3],25 ± 1.64 nM
same,IC50,[4],17.6 ± 3.2 nM
same,IC50,[13],190 nM
B1,Km,[14],8.64 ± 0.95 mM
B2,Km,[14],9.01 ± 0.51 mM
B3,Km,[14],8.83 ± 0.75 mM

# Reference: article PMC4019573, “Characterization of Protein Phosphatase 5 from Three Lepidopteran Insects: Helicoverpa armigera, Mythimna separata and Plutella xylostella” (PLoS ONE, 2014)
